Measured values reported in BindingDB's records for doi:10.7270/Q20Z71R6 (Burnham Center For Chemical Genomics, 2010).
pEC50: −log10 of the molar value.

The molecules below were run against Alkaline phosphatase, placental type (Homo sapiens, UniProt P05187) (assay: activation of placental alkaline phosphatase – biochemical, uHTS hits, luminescence, selectivity assay for human IAP activator project, dose response (AID 488888)).
Alkaline phosphatase, placental type, sequence (P05187 whole entry, looked up): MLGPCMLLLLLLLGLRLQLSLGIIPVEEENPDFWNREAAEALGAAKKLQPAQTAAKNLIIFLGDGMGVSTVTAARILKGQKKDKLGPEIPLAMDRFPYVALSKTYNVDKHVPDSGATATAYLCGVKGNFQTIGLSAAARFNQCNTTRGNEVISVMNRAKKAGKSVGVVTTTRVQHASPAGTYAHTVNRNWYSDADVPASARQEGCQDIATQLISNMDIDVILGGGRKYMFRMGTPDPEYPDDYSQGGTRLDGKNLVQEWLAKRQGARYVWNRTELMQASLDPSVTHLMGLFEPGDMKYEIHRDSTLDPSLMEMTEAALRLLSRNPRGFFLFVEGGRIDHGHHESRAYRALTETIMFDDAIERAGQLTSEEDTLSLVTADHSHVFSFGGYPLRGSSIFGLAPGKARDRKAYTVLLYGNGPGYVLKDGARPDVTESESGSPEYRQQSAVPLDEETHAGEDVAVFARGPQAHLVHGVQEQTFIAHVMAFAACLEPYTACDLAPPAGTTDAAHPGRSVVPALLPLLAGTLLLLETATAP
Molecule Cc1c(C(=O)NN=Cc2ccc(O)cc2O)[nH][nH]c1=O has a pEC50 of 4.88.
For Cc1cc(Br)ccc1SCC(=O)OCC(=O)C(C#N)c1nc2ccccc2[nH]1 (stereo unspecified) [2-[(4-bromo-2-methylphenyl)thio]acetic acid [3-cyano-3-(1,3-dihydrobenzimidazol-2-ylidene)-2-oxopropyl] ester], the pEC50 was 4.59.
C=c1[nH]n(-c2nc3ccccc3[nH]2)c(=O)c1=CN(C)C [(4E)-2-(1H-benzimidazol-2-yl)-4-(dimethylaminomethylidene)-5-methyl-pyrazol-3-one] was tested, and the pEC50 was 4.82.
In the case of CCc1ccc(CN=Nc2ncnc3nc[nH]c23)cc1 [MLS000419199], the pEC50 was 4.87.
For Cn1c(C(C#N)C(=O)c2ccc(Br)s2)nc2ccccc21 (stereo unspecified) [MLS001167394], the pEC50 was 4.21.
Work on COc1cccc(C=NNC(=O)c2[nH][nH]c(=O)c2C)c1O [N'-[(E)-(5-methoxy-6-oxidanylidene-cyclohexa-2,4-dien-1-ylidene)methyl]-4-methyl-5-oxidanylidene-1,4-dihydropyrazole-3-carbohydrazide] yielded a pEC50 of 5.11.
O=c1c2ccccc2nc(N=NCc2c(O)ccc3ccccc23)n1O [SMR000145705] gave a pEC50 of 4.45.
For O=C(Nn1c(O)csc1=S)C(=O)Nn1c(O)csc1=S [SMR000349781], the pEC50 was 4.84.
With O=Nc1[nH]c(=O)c(CC(=O)c2ccccc2)nc1NO [SMR000539633] the pEC50 was 5.01.
Molecule CCOC(=O)c1c(C)[nH]c(C(=O)N/N=C/C2C=C([N+](=O)[O-])C=CC2=O)c1C (stereo unspecified) [ethyl 2,4-dimethyl-5-[[[(E)-(3-nitro-6-oxocyclohexa-2,4-dien-1-ylidene)methyl]amino]carbamoyl]-1H-pyrrole-3-carboxylate] has a pEC50 of 4.63.
With O=C(O)[C@H]1O[C@@H](Oc2c(-c3ccc(O)c(O)c3)oc3cc(O)cc(=O)c-3c2O)[C@H](O)[C@@H](O)[C@@H]1O [quercetin glucuronide] the pEC50 was under 4.00.
